± gives the expanded uncertainty stated by the source.
Key:
[1] = xn = mol fraction of the nth substance listed; settings: 298.2 K, 101 kPa, Liquid, Camera Imaging
[2] = refractive index (Na D-line) (dimensionless); settings: 101.33 kPa, Liquid, Standard Abbe refractometry
[3] = 101.33 kPa, Liquid, Cone and plate viscometry
[4] = φn = volume fraction of the nth substance listed; settings: 101 kPa, Liquid, Camera Imaging, φ1 = 0.5

Row | Compound | refractive index ([2]; 298.2 K) | refractive index ([2]; 318.2 K) | refractive index ([2]; 328.2 K) | refractive index ([2]; 338.2 K) | viscosity ([3]; 298.2 K) | viscosity ([3]; 308.2 K) | viscosity ([3]; 318.2 K) | viscosity ([3]; 328.2 K) | viscosity ([3]; 338.2 K) | binary diffusion coefficient ([4]; 298.2 K) | other results
1 | OCCO [1,2-ethanediol] + O |  |  |  |  |  |  |  |  |  |  | binary diffusion coefficient ([1]; x1 = 0.0323): 1.23e-09 m2/s; binary diffusion coefficient ([1]; x1 = 0.0698): 8.36e-10 m2/s; binary diffusion coefficient ([1]; x1 = 0.114): 7.12e-10 m2/s; binary diffusion coefficient ([1]; x1 = 0.1667): 6.38e-10 m2/s; binary diffusion coefficient ([1]; x1 = 0.242): 5.86e-10 m2/s; binary diffusion coefficient ([1]; x1 = 0.3104): 5.02e-10 m2/s; binary diffusion coefficient ([1]; x1 = 0.4119): 4.33e-10 m2/s; binary diffusion coefficient ([1]; x1 = 0.5456): 3.2e-10 m2/s; binary diffusion coefficient ([1]; x1 = 0.7298): 2.84e-10 m2/s
2 | Cn1cc[n+](C)c1.F[B-](F)(F)F [1,3-dimethyl-1H-imidazolium tetrafluoroborate] | 1.4023 ± 0.0004 | 1.3993 ± 0.0004 | 1.3988 ± 0.0004 | 1.3975 ± 0.0004 | 34 ± 1 mPa·s | 22 ± 1 mPa·s | 15 ± 1 mPa·s | 11 ± 1 mPa·s | 7.8 ± 1 mPa·s |  | 
3 | CCn1cc[n+](C)c1.N#CN=C=[N-] [1-ethyl-3-methylimidazolium dicyanamide] + O |  |  |  |  |  |  |  |  |  | 7.25e-10 m2/s | 
4 | CCn1cc[n+](C)c1.[O-][Cl+3]([O-])([O-])[O-] [1-ethyl-3-methylimidazolium perchlorate] + O |  |  |  |  |  |  |  |  |  | 1.93e-10 m2/s | 
5 | CCn1cc[n+](C)c1.F[B-](F)(F)F [1-ethyl-3-methylimidazolium tetrafluoroborate] | 1.4098 ± 0.0004 | 1.4065 ± 0.0004 | 1.4053 ± 0.0004 | 1.4035 ± 0.0004 | 45 ± 1 mPa·s | 27 ± 1 mPa·s | 19 ± 1 mPa·s | 14 ± 1 mPa·s | 11 ± 1 mPa·s |  | refractive index ([2]; 308.2 K): 1.4082 ± 0.0004
6 | CCn1cc[n+](C)c1.F[B-](F)(F)F [1-ethyl-3-methylimidazolium tetrafluoroborate] + O |  |  |  |  |  |  |  |  |  | 3.42e-10 m2/s | binary diffusion coefficient ([4]; 308.2 K): 4.65e-10 m2/s; binary diffusion coefficient ([4]; 318.2 K): 5.57e-10 m2/s; binary diffusion coefficient ([4]; 328.2 K): 6.72e-10 m2/s; binary diffusion coefficient ([4]; 338.2 K): 7.89e-10 m2/s

Now from value to molecule, other results behind:

Row | refractive index ([2]; 298.2 K) | refractive index ([2]; 318.2 K) | refractive index ([2]; 328.2 K) | refractive index ([2]; 338.2 K) | viscosity ([3]; 298.2 K) | viscosity ([3]; 308.2 K) | viscosity ([3]; 318.2 K) | viscosity ([3]; 328.2 K) | viscosity ([3]; 338.2 K) | binary diffusion coefficient ([4]; 298.2 K) | Compound | other results
7 |  |  |  |  |  |  |  |  |  | 6.87e-10 m2/s | Cn1cc[n+](C)c1.F[B-](F)(F)F [1,3-dimethyl-1H-imidazolium tetrafluoroborate] + O | binary diffusion coefficient ([4]; 308.2 K): 7.74e-10 m2/s; binary diffusion coefficient ([4]; 318.2 K): 8.45e-10 m2/s; binary diffusion coefficient ([4]; 328.2 K): 9.62e-10 m2/s; binary diffusion coefficient ([4]; 338.2 K): 1.06e-09 m2/s
8 |  |  |  |  |  |  |  |  |  | 2.53e-10 m2/s | CCCCn1cc[n+](C)c1.N#CN=C=[N-] [1-butyl-3-methylimidazolium dicyanamide] + O | 
9 |  |  |  |  |  |  |  |  |  | 3.13e-10 m2/s | CCCCn1cc[n+](C)c1.O=[N+]([O-])[O-] [1-butyl-3-methylimidazolium nitrate] + O | 
10 | 1.4184 ± 0.0004 | 1.4142 ± 0.0004 | 1.4125 ± 0.0004 | 1.4106 ± 0.0004 | 146 ± 4 mPa·s | 76 ± 2 mPa·s | 45 ± 1 mPa·s | 29 ± 1 mPa·s | 21 ± 1 mPa·s |  | CCCCn1cc[n+](C)c1.F[B-](F)(F)F [1-butyl-3-methylimidazolium tetrafluoroborate] | refractive index ([2]; 308.2 K): 1.4163 ± 0.0004
11 |  |  |  |  |  |  |  |  |  | 1.24e-10 m2/s | CCCCn1cc[n+](C)c1.F[B-](F)(F)F [1-butyl-3-methylimidazolium tetrafluoroborate] + O | binary diffusion coefficient ([4]; 308.2 K): 2.56e-10 m2/s; binary diffusion coefficient ([4]; 318.2 K): 3.83e-10 m2/s; binary diffusion coefficient ([4]; 328.2 K): 5.13e-10 m2/s; binary diffusion coefficient ([4]; 338.2 K): 6.45e-10 m2/s
12 | 1.3325 ± 0.0005 | 1.3299 ± 0.0005 | 1.3282 ± 0.0005 | 1.3275 ± 0.0005 | 0.9 mPa·s | 0.72 mPa·s | 0.61 mPa·s | 0.5 mPa·s | 0.43 mPa·s |  | O [water] | refractive index ([2]; 308.2 K): 1.3313 ± 0.0005

From the NIST ThermoML archive (doi:10.1016/j.fluid.2014.01.003)
